One series addresses Prothrombin (Homo sapiens, UniProt P00734). The experiment in a line: Inhibition of thrombin.
In a further series the target is Coagulation factor X (Homo sapiens, UniProt P00742). Nature of the series: Inhibition of factor 10a.
The next series deals with Plasminogen (Homo sapiens, UniProt P00747). Nature of the series: Inhibition of plasmin.
For series [1], the target named is T1, Suppressor of tumorigenicity 14 protein (Homo sapiens, UniProt Q9Y5Y6).
T1 sequence (Q9Y5Y6 whole entry): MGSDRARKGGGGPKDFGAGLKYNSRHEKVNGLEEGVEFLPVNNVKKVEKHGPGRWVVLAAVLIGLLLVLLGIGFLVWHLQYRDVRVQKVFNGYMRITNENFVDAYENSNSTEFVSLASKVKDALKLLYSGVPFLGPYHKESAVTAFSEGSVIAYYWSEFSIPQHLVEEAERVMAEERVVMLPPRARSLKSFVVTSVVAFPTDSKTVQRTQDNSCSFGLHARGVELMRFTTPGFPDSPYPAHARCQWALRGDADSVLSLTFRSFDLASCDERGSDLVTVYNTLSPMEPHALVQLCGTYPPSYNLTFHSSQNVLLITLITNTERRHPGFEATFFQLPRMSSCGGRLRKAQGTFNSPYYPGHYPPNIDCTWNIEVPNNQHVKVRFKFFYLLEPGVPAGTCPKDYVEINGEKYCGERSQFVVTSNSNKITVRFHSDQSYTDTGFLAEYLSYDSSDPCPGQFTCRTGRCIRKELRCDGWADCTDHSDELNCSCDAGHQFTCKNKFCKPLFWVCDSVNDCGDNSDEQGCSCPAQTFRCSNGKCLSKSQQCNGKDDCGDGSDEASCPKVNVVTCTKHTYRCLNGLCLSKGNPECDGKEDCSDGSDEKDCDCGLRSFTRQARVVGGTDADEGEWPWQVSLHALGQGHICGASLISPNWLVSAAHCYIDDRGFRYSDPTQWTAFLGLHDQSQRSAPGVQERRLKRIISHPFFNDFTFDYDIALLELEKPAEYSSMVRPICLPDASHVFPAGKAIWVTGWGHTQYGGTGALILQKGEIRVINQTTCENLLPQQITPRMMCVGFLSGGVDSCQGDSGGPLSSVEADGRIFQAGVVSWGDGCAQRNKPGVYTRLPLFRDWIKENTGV
The experiment in a line: Inhibition of matriptase.

Series [2] concerns the target Urokinase-type plasminogen activator (Homo sapiens, UniProt P00749). Nature of the series: Inhibition of uPA.
Series [3] has as its system Rattus norvegicus. The experiment in a line: Cmax in rat assessed as melagatran level at 20 mg/kg, po after 120 mins. Format: ADME, organism-based. On the set-up: dose 20 mg/kg, route oral. The note with it: in vivo, 2 h.
Series [4] has as its system Rattus norvegicus. The experiment in a line: Cmax in rat assessed as N-hydroxy-melagatran level at 20 mg/kg, po after 120 mins. The note with it: in vivo, 2 h. The format is ADME, organism-based. Set-up: dose 20 mg/kg, route oral.

Each structure is given as a SMILES string.

What is called Ki is a measure of affinity in units of concentration, obtained from inhibition or displacement. Low readings indicate higher affinity, high ones lower affinity. What is called Cmax is the peak of the concentration-time curve.

Chain of Plasminogen (P00747 97-580 limits assumed): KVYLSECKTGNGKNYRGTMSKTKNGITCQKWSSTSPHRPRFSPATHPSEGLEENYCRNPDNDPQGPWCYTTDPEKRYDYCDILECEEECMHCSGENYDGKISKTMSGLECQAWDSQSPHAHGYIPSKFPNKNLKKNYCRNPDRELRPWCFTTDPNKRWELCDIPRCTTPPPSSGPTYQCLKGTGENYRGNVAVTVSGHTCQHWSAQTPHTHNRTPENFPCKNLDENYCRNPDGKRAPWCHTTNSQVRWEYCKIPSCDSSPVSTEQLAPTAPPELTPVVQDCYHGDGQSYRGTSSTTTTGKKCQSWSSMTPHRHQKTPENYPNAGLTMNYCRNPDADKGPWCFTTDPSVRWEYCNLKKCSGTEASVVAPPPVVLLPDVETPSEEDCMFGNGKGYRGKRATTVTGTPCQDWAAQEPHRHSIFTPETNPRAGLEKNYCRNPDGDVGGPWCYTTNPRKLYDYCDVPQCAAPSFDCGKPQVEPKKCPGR
Chain of Plasminogen (P00747 581-810 limits assumed): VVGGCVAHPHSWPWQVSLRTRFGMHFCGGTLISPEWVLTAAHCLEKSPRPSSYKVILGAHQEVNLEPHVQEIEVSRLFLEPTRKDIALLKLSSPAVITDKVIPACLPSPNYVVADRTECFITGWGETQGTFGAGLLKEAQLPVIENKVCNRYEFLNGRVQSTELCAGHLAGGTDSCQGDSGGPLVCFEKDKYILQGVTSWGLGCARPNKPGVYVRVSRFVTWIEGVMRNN
Chain of Coagulation factor X (P00742 41-179 limits assumed): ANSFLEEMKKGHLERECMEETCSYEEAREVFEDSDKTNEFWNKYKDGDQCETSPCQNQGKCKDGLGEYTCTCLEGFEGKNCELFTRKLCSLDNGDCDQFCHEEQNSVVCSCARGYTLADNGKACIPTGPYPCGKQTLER
Chain of Coagulation factor X (P00742 235-488 limits assumed): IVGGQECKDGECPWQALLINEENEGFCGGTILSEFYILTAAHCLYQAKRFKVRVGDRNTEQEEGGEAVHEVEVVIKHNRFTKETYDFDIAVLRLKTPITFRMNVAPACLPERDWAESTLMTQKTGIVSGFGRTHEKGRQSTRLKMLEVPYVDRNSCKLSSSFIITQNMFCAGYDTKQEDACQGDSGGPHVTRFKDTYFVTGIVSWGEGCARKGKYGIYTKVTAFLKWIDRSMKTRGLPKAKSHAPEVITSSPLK

On to `COC(=O)[C@@H]1CCCCN1C(=O)[C@H](Cc1cccc(C(=N)N)c1)NS(=O)(=O)c1cccc(NC(=O)CCN)c1`, for which the Ki on Prothrombin was 10.6 µM; at Coagulation factor X it was 127 µM; at Plasminogen, 69.4 µM; in series [1], 2.4 µM; in series [2], 126 µM.
Consider `CCOC(=O)CN[C@@H](C(=O)N1CC[C@H]1C(=O)NCc1ccc(/C(N)=N\O)cc1)C1CCCCC1` [XIMELAGATRAN], for which the Cmax was 1000 nM with Rattus norvegicus [3] and 1100 nM with Rattus norvegicus [4].
Turning to `CCOC(=O)N1CCN(C(=O)[C@H](Cc2cccc(C(=N)N)c2)NS(=O)(=O)c2cccc(NC(=O)CCN)c2)CC1`, the Ki at Prothrombin was found to be 5.1 µM; on Coagulation factor X it was 26 µM; on Plasminogen, 13.4 µM; in series [1] it was 0.065 µM; in series [2], 9.2 µM.
For `CC1CCCCN1C(=O)[C@H](Cc1cccc(C(=N)N)c1)NS(=O)(=O)c1cccc(NC(=O)CCN)c1` (some centres not stated), in that order: 0.395 µM, 17 µM, 4.5 µM, 0.47 µM and 34.5 µM.
As for `N=C(N)c1cccc(C[C@H](NS(=O)(=O)c2cccc(NC(=O)CCN)c2)C(=O)N2CCN(C(=O)OCc3ccccc3)CC2)c1`, the Ki at Prothrombin is 1.4 µM; on Coagulation factor X, 19 µM; at Plasminogen, 1.3 µM; in series [1] it was 0.0075 µM; in series [2], 3.3 µM.
As to `CC1CCN(C(=O)[C@H](Cc2cccc(C(=N)N)c2)NS(=O)(=O)c2cccc(NC(=O)CCN)c2)CC1`, the Ki is 0.11 µM on Prothrombin; 4.4 µM on Coagulation factor X; 6.2 µM at Plasminogen; 0.053 µM in series [1]; 3 µM in series [2].
For `N=C(N)c1cccc(C[C@H](NS(=O)(=O)c2cccc(NC(=O)CCN)c2)C(=O)N2CCC(CCCC(=O)O)CC2)c1`, the Ki amounted to 14 µM at Prothrombin, 18 µM on Coagulation factor X, 3.3 µM at Plasminogen and 17 µM in series [2].
`N=C(N)c1cccc(C[C@H](NS(=O)(=O)c2cccc(NC(=O)CCN)c2)C(=O)N2CCNCC2)c1`: the Ki is 71.7 µM on Prothrombin; 2.1 µM at Coagulation factor X; 2.56 µM at Plasminogen; 0.037 µM in series [1]; 0.88 µM in series [2].
For `N=C(N)c1cccc(C[C@H](NS(=O)(=O)c2cccc(NC(=O)CCN)c2)C(=O)N2CCCC[C@H]2C(=O)O)c1`, in that order: 159 µM, 30 µM, 79 µM, 11 µM and 193 µM.
In the case of `N=C(N)c1cccc(C[C@H](NS(=O)(=O)c2cccc(NC(=O)CCN)c2)C(=O)N2CCCCC2)c1`, the Ki at Prothrombin came to 0.27 µM; on Coagulation factor X it was 10 µM; on Plasminogen, 3.3 µM; in series [1] it was 0.033 µM; in series [2], 2.6 µM.
In the case of `N=C(N)c1cccc(C[C@H](NS(=O)(=O)c2cccc(NC(=O)CCN)c2)C(=O)N2CCCC(C(N)=O)C2)c1` (some centres not stated), the Ki was 2.1 µM at Prothrombin, 15 µM on Coagulation factor X, 1.3 µM on Plasminogen and 7.4 µM in series [2].
As to `CNC(=O)CCCC1CCN(C(=O)[C@H](Cc2cccc(C(=N)N)c2)NS(=O)(=O)c2cccc(NC(=O)CCN)c2)CC1`, the Ki on Prothrombin turned out to be 0.85 µM; on Coagulation factor X, 10 µM; on Plasminogen it was 1.6 µM; in series [2] it was 3.3 µM.
For `N=C(N)c1cccc(C[C@H](NS(=O)(=O)c2cccc(NC(=O)CCN)c2)C(=O)N2CCC(CCCC(N)=O)CC2)c1`, the Ki at Prothrombin came out at 0.67 µM; on Coagulation factor X it was 8.2 µM; at Plasminogen, 2.9 µM; in series [2] it was 2.1 µM.
For `N=C(N)c1cccc(C[C@H](NS(=O)(=O)c2cccc(NC(=O)CCN)c2)C(=O)N2CCN(c3ccc(O)cc3)CC2)c1`, the Ki at Prothrombin turned out to be 14.5 µM; on Coagulation factor X, 2.5 µM; on Plasminogen, 2.5 µM; in series [1], 0.15 µM; in series [2], 8.37 µM.
Consider `COC(=O)CCCC1CCN(C(=O)[C@H](Cc2cccc(C(=N)N)c2)NS(=O)(=O)c2cccc(NC(=O)CCN)c2)CC1`, for which the Ki was determined as 0.6 µM at Prothrombin, 6.1 µM at Coagulation factor X, 2.8 µM on Plasminogen and 2.5 µM in series [2].
On to `N=C(N)c1cccc(C[C@H](NS(=O)(=O)c2cccc(NC(=O)CCN)c2)C(=O)N2CCC(Cc3ccccc3)CC2)c1`, for which the Ki is 0.35 µM on Prothrombin; 3.4 µM on Coagulation factor X; 2.8 µM on Plasminogen; 0.017 µM in series [1]; 2.2 µM in series [2].
As to `COC(=O)[C@H]1CCCCN1C(=O)[C@H](Cc1cccc(C(=N)N)c1)NS(=O)(=O)c1cccc(NC(=O)CCN)c1`, the Ki is 24.2 µM at Prothrombin; 0.1 µM on Coagulation factor X; 4.9 µM at Plasminogen; 0.1 µM in series [1]; 76 µM in series [2].
As for `N=C(N)c1cccc(C[C@H](NS(=O)(=O)c2cccc(NC(=O)CCN)c2)C(=O)N2CCC(C(N)=O)CC2)c1`, the inhibitory constant (Ki) on Prothrombin came out at 1.25 µM; on Coagulation factor X it was 2.5 µM; on Plasminogen, 1.2 µM; in series [1], 0.013 µM; in series [2], 3.3 µM.
As for `N=C(N)c1cccc(C[C@H](NS(=O)(=O)c2cccc(NC(=O)CCN)c2)C(=O)N2CCCC[C@@H]2C(=O)O)c1`, the Ki was 2.3 µM on Prothrombin; 11 µM on Coagulation factor X; 9.4 µM on Plasminogen; 0.18 µM in series [1]; 7.3 µM in series [2].
As to `CNC(=O)CCC(=O)N1CCN(C(=O)[C@H](Cc2cccc(C(=N)N)c2)NS(=O)(=O)c2cccc(NC(=O)CCN)c2)CC1`, the Ki at Prothrombin came out at 29 µM; on Coagulation factor X, 44 µM; at Plasminogen, 3.6 µM; in series [1], 0.053 µM; in series [2], 16.9 µM.

The values are drawn from ChEMBL document CHEMBL1153335, “Incorporation of neutral C-terminal residues in 3-amidinophenylalanine-derived matriptase inhibitors” (Bioorg Med Chem Lett, 2009).
